From ChEMBL document CHEMBL1136465, “Phenolics with PPAR-gamma ligand-binding activity obtained from licorice (Glycyrrhiza uralensis roots) and ameliorative effects of glycyrin on genetically diabetic KK-A(y) mice” (2003)

Tests used:
Type in all cases: functional
Mus musculus [1] = species on record: Mus musculus; assay: Blood glucose level of the diabetic KK-Ay mice on day 0 was measured
Mus musculus [2] = species on record: Mus musculus; assay: Blood glucose level of the diabetic KK-Ay mice on day 4 was measured
Mus musculus [3] = species on record: Mus musculus; assay: Body weight of the fasted diabetic KK-Ay mice on day 10 was measured
Mus musculus [4] = species on record: Mus musculus; assay: Body weight of the non-fasted diabetic KK-Ay mice on day 0 was measured
Mus musculus [5] = species on record: Mus musculus; assay: Body weight of the non-fasted diabetic KK-Ay mice on day 4 was measured
Mus musculus [6] = species on record: Mus musculus; assay: Body weight of the non-fasted diabetic KK-Ay mice on day 7 was measured
Mus musculus [7] = species on record: Mus musculus; assay: Average food intake of the diabetic KK-Ay mice was measured from total intake amount/days/number of mice
Mus musculus [8] = species on record: Mus musculus; assay: Average sample intake of the diabetic KK-Ay mice was measured as average food intake/average body weight of mice

Row | Structure (SMILES) | Blood glucose (Mus musculus [1]) [mg/dL] | Blood glucose (Mus musculus [2]) [mg/dL] | Body weight (Mus musculus [3]) [g] | Body weight (Mus musculus [4]) [g] | Body weight (Mus musculus [5]) [g] | Body weight (Mus musculus [6]) [g] | Average food intake (Mus musculus [7]) [g mouse-1 day-1] | Average sample intake (Mus musculus [8]) [mg/kg/day]
1 | COc1cc2oc(=O)c(-c3ccc(O)cc3O)cc2c(OC)c1CC=C(C)C [GLYCYRIN] | 474 | 278 | 48.1 | 54.1 | 50.4 | 51.9 | 5.34 | 102
2 | COc1c(CC=C(C)C)c(O)cc2oc(=O)c3c4ccc(O)cc4oc3c12 [GLYCYROL] | 427 | 421 | 46.8 | 52.6 | 49.1 | 50.3 | 5.47 | 108
3 | CCc1ccc(CCOc2ccc(CC3SC(=O)NC3=O)cc2)nc1 (centres undefined) [PIOGLITAZONE] | 486 | 191 | 52.5 | 55.1 | 53.6 | 55.8 | 6.34 | 23
